Test results reported in paper PMC4536076, “Chemical Library Screening and Structure-Function Relationship Studies Identify Bisacodyl as a Potent and Selective Cytotoxic Agent Towards Quiescent Human Glioblastoma Tumor Stem-Like Cells” (PLoS ONE, 2015).
Where a name gives a salt, the structure may show the parent alone. Read-outs that look alike come from different tables or passages of the source.

What was measured:
quiescent TG1 GSCs [1] = test: ATP-Glo dose-response, quiescent TG1 GSCs; assay type: cell-based, human; details: for EC50 / Quiescent TG1 GSCs EC50: SAR study, ATP-Glo cell survival assay, 24 h, triplicate; for EC50: read-out: Quiescent TG1 GSCs EC50; for fold increase in EC50 (activity decrease) compared to DDPM (compound 2): quiescent TG1 GSCs
Experimental: (§1) The EC50 value was determined for each compound by fitting the data points according to the following equation: y=Smax+Smin*(x*1/EC50)^n/1+(x*1/EC50)^n where y represents the expected response, x is the chemical compound concentration, S max and S min are the maximum and minimum responses recorded, respectively and n is the Hill coefficient. Curve fitting was performed using Microsoft Excel Solver component.
(§2) Proliferating or quiescent TG1 cells were seeded in 50 μL of their respective media (30 000 and 40 000 viable cells/well, respectively) into 96-well opaque bottom plates (Greiner, Courtaboeuf, France). Compound treatment was performed by adding 50 μL of compound solutions (in the presence of 2% DMSO in culture medium). […] All compounds were tested in triplicate in each experiment. Independent experiments were performed at least twice for almost all of the compounds.

proliferating TG1 GSCs [2] = test: ATP-Glo dose-response, proliferating TG1 GSCs; assay type: cell-based, human; details: SAR study, ATP-Glo cell survival assay, 24 h, triplicate; for EC50: read-out: Proliferating TG1 GSCs EC50
Experimental: as §1, §2

[3] = tested on: fetal neural stem cells (f-NSC); test: ATP-Glo dose-response, fetal neural stem cells; assay type: cell-based; details: Homo sapiens, Neural stem cell; ATP Glo readout, 24 h treatment
proliferating TG1 GSCs [4] = details: 50 μM; for Activity on proliferating TG1 GSCs (hit compounds reducing ATP levels): primary screen, 24 h
Experimental: (§3) Proliferating or quiescent TG1 GSCs were seeded (30 000 and 40 000 viable cells/well, respectively) into 96-well opaque bottom plates (Greiner) with the Biomek FX robot (Beckman Coulter). Each compound from the Prestwick Library was then added (final concentration: 50 μM; 1% DMSO). Each molecule was tested once. Negative control wells (12/96 per assay plate) contained cells treated with 1% DMSO (final concentration) and positive control wells (4/96 per assay plate) contained cells treated with the fungal toxin ophiobolin A (Sigma Aldrich) at 50 μM with 1% DMSO. […] Luminescence in each well was measured with the Victor3 plate reader (PerkinElmer).
(§4) Relative ATP levels in each well were determined by calculating the percentage of luminescent signal in the well with respect to the average signal measured in negative control wells.
(§5) Primary screen hits were further tested in duplicate, at two concentrations (50 and 5 μM) on proliferating and quiescent TG1 GSCs. Cell plating and treatment with compounds were as for the primary screen. Hit selection/confirmation criteria for quiescent cells were as described above.

quiescent TG1 GSCs [5] = details: 50 μM; for Activity on quiescent TG1 GSCs (hit compounds reducing ATP levels): primary screen, 24 h
Experimental: as §3, §4, §5

quiescent TG16 GSCs = test: ATP-Glo dose-response, quiescent TG16 GSCs; assay type: cell-based, human; details: ATP Glo readout, 24 h treatment; read-out: Q TG16 GSCs EC50
Experimental: as §1
(§6) Similar dose response curves were performed using GSCs isolated from GBM of two other patients (TG16 and OB1 GSCs) grown under proliferating and quiescent conditions.

[6] = tested on: primary astrocytes (HA cells); test: ATP-Glo dose-response, primary astrocytes; assay type: cell-based, human; details: ATP Glo readout, 24 h treatment
proliferating TG16 GSCs = test: ATP-Glo dose-response, proliferating TG16 GSCs; assay type: cell-based, human; details: ATP Glo readout, 24 h treatment; read-out: P TG16 GSCs EC50
Experimental: as §1, §6

quiescent OB1 GSCs = test: ATP-Glo dose-response, quiescent OB1 GSCs; assay type: cell-based, human; details: ATP Glo readout, 24 h treatment; read-out: Q OB1 GSCs EC50
Experimental: as §1, §6

HEK 293 cells = test: ATP-Glo dose-response, HEK 293 cells; assay type: cell-based, human; details: ATP Glo readout, 24 h treatment
Experimental: as §1, with “component. […]” for “component.”

Compound | Activity on proliferating TG1 GSCs (hit compounds reducing ATP levels) (proliferating TG1 GSCs [4]) | EC50 (quiescent TG1 GSCs [1]; Homo sapiens) | Activity on quiescent TG1 GSCs (hit compounds reducing ATP levels) (quiescent TG1 GSCs [5]) | further results
4-hydroxyphenyl-4-phenyl-(pyridin-2-yl)-methane [Compound 7] | – | – | – | EC50 (quiescent TG1 GSCs [1]): 17.1 ± 6.3 µM; EC50 (proliferating TG1 GSCs [2]): > 100 µM
4-hydroxyphenyl-4-trifluoromethylphenyl-2-pyrimidyl-methane [Compound 11] | – | – | – | EC50 (quiescent TG1 GSCs [1]): 12.4 ± 6.9 µM; EC50 (proliferating TG1 GSCs [2]): > 100 µM
COc1ccc(CCN2CCC(Nc3nc4ccccc4n3Cc3ccc(F)cc3)CC2)cc1 [Astemizole] | yes | – | – | EC50 [3]: 6.3 ± 0.2 µM
Oc1ccc(C(c2ccc(O)cc2)c2ccccn2)cc1 [Compound 2, 4,4'-dihydroxydiphenyl(pyridine-2-yl)methane] | – | 1 ± 0.5 µM | – | EC50 (proliferating TG1 GSCs [2]; Homo sapiens): > 100 µM
CC(=O)Oc1ccc(C(c2ccc(O)cc2)c2ccccn2)cc1 (stereo not drawn) [Compound 3, 4-((4-hydroxyphenyl)(pyridin-2-yl)methyl)phenyl acetate] | – | 1 ± 0.5 µM | – | EC50 (proliferating TG1 GSCs [2]; Homo sapiens): > 100 µM
COc1ccc(C(c2ccc(OC)cc2)c2ccccn2)cc1 [Compound 4, 4,4'-dimethoxydiphenyl(pyridin-2-yl)methane] | – | – | – | Quiescent TG1 GSCs EC50 (quiescent TG1 GSCs [1]): No activity; Proliferating TG1 GSCs EC50 (proliferating TG1 GSCs [2]): No activity
COc1ccc(C(c2ccc(O)cc2)c2ccccn2)cc1 (stereo not drawn) [Compound 5, 4-hydroxyphenyl-4-methoxyphenyl-(pyridin-2-yl)-methane] | – | 8 ± 6 µM | – | fold increase in EC50 (activity decrease) compared to DDPM (compound 2) (quiescent TG1 GSCs [1]): 8 fold; EC50 (proliferating TG1 GSCs [2]; Homo sapiens): > 100 µM
Oc1ccc(Cc2ccccn2)cc1 [Compound 8, 2-(4-Hydroxybenzyl)pyridine] | – | – | – | Quiescent TG1 GSCs EC50 (quiescent TG1 GSCs [1]): No activity; Proliferating TG1 GSCs EC50 (proliferating TG1 GSCs [2]): No activity
Oc1ccc(C(c2ccccn2)c2ccccc2O)cc1 (stereo not drawn) [Compound 9, (2-hydroxyphenyl)-(4-hydroxyphenyl)-(pyridin-2-yl)-methane] | – | 57.6 ± 0.7 µM | – | Proliferating TG1 GSCs EC50 (proliferating TG1 GSCs [2]): No activity
Oc1ccc(C(c2ccc(Cl)cc2)c2ccccn2)cc1 (stereo not drawn) [Compound 10, 4-hydroxyphenyl-4-chlorophenyl-pyridin-2-yl-methane] | – | 4 ± 1.4 µM | – | EC50 (proliferating TG1 GSCs [2]; Homo sapiens): > 100 µM
Oc1ccc(C(c2ccccc2)c2ccc(O)cc2)cc1 [Compound 12, 4,4’-dihydroxyphenyl-phenyl-methane] | – | 14.2 ± 8.8 µM | – | fold increase in EC50 (activity decrease) compared to DDPM (compound 2) (quiescent TG1 GSCs [1]): at least 10 fold; EC50 (proliferating TG1 GSCs [2]; Homo sapiens): 60.8 ± 10.4 µM
Oc1ccc(Cc2ccc(O)cc2)cc1 [Compound 13, Bis(4-hydroxyphenyl)methane] | – | – | – | Quiescent TG1 GSCs EC50 (quiescent TG1 GSCs [1]): No activity; Proliferating TG1 GSCs EC50 (proliferating TG1 GSCs [2]): No activity
CC(=O)Oc1ccc(C(c2ccc(OC(C)=O)cc2)c2cccc[n+]2C)cc1 [Compound 14, 2-(bis(4-acetoxyphenyl)methyl)-1-methylpyridinium iodide] | – | > 100 µM | – | EC50 (proliferating TG1 GSCs [2]; Homo sapiens): > 100 µM
Oc1ccc(C(c2ccc(O)cc2)c2cccnc2)cc1 [Compound 15, 4,4'-dihydroxyphenyl-3-pyridinyl-methane] | – | 8 ± 3 µM | – | fold increase in EC50 (activity decrease) compared to DDPM (compound 2) (quiescent TG1 GSCs [1]): ~ 8 fold; EC50 (proliferating TG1 GSCs [2]; Homo sapiens): > 100 µM
Oc1ccc(C(c2ccncc2)c2ccc(O)cc2)cc1 [Compound 16, 4,4'-dihydroxyphenyl-4-pyridinyl-methane] | – | 39 ± 2 µM | – | fold increase in EC50 (activity decrease) compared to DDPM (compound 2) (quiescent TG1 GSCs [1]): ~ 40 fold; EC50 (proliferating TG1 GSCs [2]; Homo sapiens): > 100 µM
Oc1ccc(C(c2ccc(O)cc2)c2cc(Br)ccn2)cc1 [Compound 18, 4,4'-dihydroxyphenyl-2-(4-bromopyridinyl)-methane] | – | 0.36 ± 0.06 µM | – | Proliferating TG1 GSCs EC50 (proliferating TG1 GSCs [2]): No activity
CC(C)(C)OC(=O)NCCCCCCNC(=O)CCCC#Cc1cccc(C(c2ccc(O)cc2)c2ccc(O)cc2)n1 [Compound 19, tert-butyl(6-(6-(6-(bis(4-hydroxyphenyl)methyl)pyridin-2-yl)hex-5-ynamido)hexyl)carbamate] | – | 3.84 µM | – | Proliferating TG1 GSCs EC50 (proliferating TG1 GSCs [2]): No activity
O=C(N/N=C/c1ccc([N+](=O)[O-])o1)c1ccc(O)cc1 [Nitrofuroxazide] | yes | – | yes | –
CC(C)=C[C@H]1C[C@H](C)[C@]2(CC[C@]3(C)C[C@H]4[C@H](C(=O)C[C@@]4(C)O)/C(C=O)=C\C[C@H]32)O1 [Ophiobolin A] | – | – | – | cytotoxicity (positive control) (quiescent TG1 GSCs [5]; 1% DMSO, quiescent GSCs): cytotoxic; cytotoxicity (positive control) (proliferating TG1 GSCs [4]; 1% DMSO, proliferating GSCs): cytotoxic
COc1cc2nc(N3CCN(C(=O)c4ccco4)CC3)nc(N)c2cc1OC [Prazosin hydrochloride] | yes | – | yes | –
COc1cc(NC(C)CCCN)c2ncccc2c1 (stereo not drawn) [Primaquine diphosphate] | yes | – | yes | –
C[n+]1cc2c3c(ccc2c2ccc4cc5c(cc4c21)OCO5)OCO3 [Sanguinarine] | yes | – | yes | –
Clc1ccc(C(Cn2ccnc2)OCc2csc3c(Cl)cccc23)c(Cl)c1 (stereo not drawn) [Sertaconazole nitrate] | yes | – | yes | –
CN[C@H]1CC[C@@H](c2ccc(Cl)c(Cl)c2)c2ccccc21 [Sertraline] | yes | – | yes | –
CC/C(=C(\c1ccccc1)c1ccc(OCCN(C)C)cc1)c1ccccc1 [Tamoxifen citrate] | yes | – | yes | –
CCCCCCCCCCCCCCCC[N+](C)(C)CCN(Cc1ccc(OC)cc1)c1ncccn1 [Thonzonium bromide] | yes | – | yes | –
C[C@H]1CC[C@]2(NC1)O[C@H]1C[C@H]3[C@@H]4CC[C@H]5C[C@@H](O[C@@H]6O[C@H](CO)[C@H](O[C@@H]7O[C@H](CO)[C@@H](O)[C@H](O[C@@H]8OC[C@@H](O)[C@H](O)[C@H]8O)[C@H]7O[C@@H]7O[C@H](CO)[C@@H](O)[C@H](O)[C@H]7O)[C@H](O)[C@H]6O)CC[C@]5(C)[C@H]4CC[C@]3(C)[C@H]1[C@@H]2C [Tomatine] | yes | – | yes | –
CCOC1O[C@H]([C@@H](COCc2ccccc2)OCc2ccccc2)[C@H](OCc2ccccc2)[C@H]1O (stereo partly drawn) [Tribenoside] | yes | – | yes | –
Avermectin B1 | yes | – | yes | –
Beta-Escin | yes | – | yes | EC50 (quiescent TG16 GSCs): 8 ± 1 µM; EC50 [6]: 7 ± 1 µM; EC50 (proliferating TG16 GSCs): 6 ± 1 µM; EC50 (quiescent OB1 GSCs): 6 ± 1 µM; EC50 (HEK 293 cells): 31 ± 1 µM
